Reference: PubChem BioAssay (NCI)
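How tested: cells in 96-well plates exposed to compound for 48 hours at five concentrations. At the GI50, growth is halved. Definition used: TGI = concentration required for complete inhibition of growth.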

Assays:
Assay in all cases: inhibition of tumour cell growth, NCI panel, 48 h
[1] = test system: SK-MEL-2 melanoma
[2] = test system: SW-620 colon
[3] = test system: CCRF-CEM leukemia
[4] = test system: ACHN renal
[5] = test system: A498 renal
[6] = test system: BT-549 breast
[7] = test system: OVCAR-3 ovarian
[8] = test system: RPMI-8226 leukemia
[9] = test system: HS 578T breast
[10] = test system: HT29 colon
[11] = test system: NCI-H226 lung
[12] = test system: A549 NSCLC
[13] = test system: OVCAR-8 ovarian
[14] = test system: SK-MEL-28 melanoma
[15] = test system: HCT-15 colon
[16] = test system: COLO 205 colon
[17] = test system: OVCAR-5 ovarian
[18] = test system: KM12 colon
[19] = test system: MOLT-4 leukemia
[20] = test system: OVCAR-4 ovarian
[21] = test system: IGROV1 ovarian
[22] = test system: SNB-75 CNS
[23] = test system: SF-539 CNS
[24] = test system: RXF 393 renal
[25] = test system: U251 CNS
[26] = test system: MALME-3M melanoma
[27] = test system: TK-10 renal
[28] = test system: HL-60(TB) leukemia

CO[C@H]1/C=C/C=C/C=C/C[C@H](OC(=O)[C@@H](C)NC(=O)C2CCCCC2)[C@H](C)[C@@H](O)/C(C)=C\CCC2=CC(=O)C=C(NC(=O)C1)C2=O
GI50 [1]: 131 nM
TGI [1]: 715 nM
GI50 [2]: 179 nM
TGI [2]: 3630 nM
GI50 [3]: 114 nM
TGI [3]: > 50000 nM
GI50 [4]: 223 nM
TGI [4]: 1310 nM
GI50 [5]: 282 nM
TGI [5]: 2330 nM
GI50 [6]: 172 nM
TGI [6]: 1380 nM
GI50 [7]: 154 nM
TGI [7]: 997 nM
GI50 [8]: 111 nM
TGI [8]: 327 nM
GI50 [9]: 119 nM
TGI [9]: 590 nM
GI50 [10]: 80.1 nM
TGI [10]: 513 nM
GI50 [11]: 157 nM
TGI [11]: 797 nM
GI50 [12]: 188 nM
TGI [12]: 1920 nM
GI50 [13]: 194 nM
TGI [13]: 1570 nM
GI50 [14]: 102 nM
TGI [14]: 490 nM
GI50 [15]: 336 nM
TGI [15]: 5570 nM
GI50 [16]: 116 nM
TGI [16]: 736 nM
GI50 [17]: 324 nM
TGI [17]: 2890 nM
GI50 [18]: 131 nM
TGI [18]: 10100 nM
GI50 [19]: 142 nM
TGI [19]: 7040 nM
GI50 [20]: 225 nM
TGI [20]: 2840 nM
GI50 [21]: 94.1 nM
TGI [21]: 1280 nM
GI50 [22]: 83.2 nM
TGI [22]: 1700 nM
GI50 [23]: 128 nM
TGI [23]: 519 nM
GI50 [24]: 94.5 nM
TGI [24]: 346 nM
GI50 [25]: 98.5 nM
TGI [25]: 953 nM
GI50 [26]: 113 nM
TGI [26]: 801 nM
GI50 [27]: 274 nM
TGI [27]: 2310 nM
GI50 [28]: 167 nM
TGI [28]: 839 nM
